Test results: patent publication US20170009228A1, “BIOLOGICAL MATERIALS AND THERAPEUTIC USES THEREOF” (IMPERIAL INNOVATIONS LIMITED, priority 2014, published 2017)

Legend:
[1] = system: primary human macrophages; experiment: Cytokine synthesis in primary human macrophages stimulated with tenascin-C or its domains; type: cell-based
Procedure: Human monocytes were isolated from peripheral blood (London Blood Bank) and macrophages were derived from monocytes after differentiation for 4 days with 100 ng/ml of M-CSF as previously described (Foxwell (1998)).
Immediately after isolation, RA membrane cells and macrophages were cultured at 1×10^5 cells/well in RPMI 1640 containing 10% (v/v) FBS and 100 U/ml (Units/ml) penicillin/streptomycin in 96-well tissue culture plates for 24 hours before stimulation. Synovial fibroblasts (used only at either passage number 2 or 3) were cultured at 1×10^4 cells/well in DMEM containing 10% (v/v) FBS and 100 U/ml penicillin/streptomycin in 96-well tissue culture plates for 24 hours before stimulation.
(§1) Cells were incubated for 24 hours at 37° C. with the indicated doses of tenascin-C and recombinant tenascin-C fragments (1.0 μM-1.0 nM). Cells were also stimulated where indicated with LPS (1 ng/ml for human macrophages, 10 ng/ml for human fibroblasts, RA membrane cells and HEKs, 100 ng/ml for MEFS and BMDMs and 10 ng/ml for HEKS), PAM3 (10 ng/ml for human macrophages, human fibroblasts, and HEKs, 100 ng/ml for MEFs and BMDMs), murine IL-1 (5 ng/ml for MEFS) and murine TNF-α (100 ng/ml for MEFS). Unless specifically stated otherwise rough LPS was used for in vitro studies.
Where stated, cells were pre-incubated with 10 μg/ml anti-CD14 antibody, 10 μg/ml IL1 receptor antagonist, 10 μg/ml anti-TLR2 antibody, 25 μg/ml anti-TLR4 antibody, 10 or 25 μg/ml isotype control antibody, 25 μg/ml polymyxin B, or 1 μg/ml msbB LPS, for 30 minutes at 37° C. before stimulation. Where stated, recombinant tenascin-C and FBG, and LPS were boiled for 15 minutes before addition to cells
(§2) Supernatants were subsequently examined for the presence of the cytokines TNF-α, IL-6, and IL-8 by enzyme-linked immunosorbent assay (ELISA) according to the manufacturer's instructions. Absorbance was read on a spectrophotometric ELISA plate reader (Labsystems Multiscan Biochromic, Vantaa, Finland) and analyzed using the Ascent software program (Thermo Labsystems, Altrincham, UK).

[2] = system: synovial membranes from RA patients; experiment: Cytokine synthesis in RA synovial membrane cells stimulated with FBG; type: cell-based, human; settings: FBG 1.0-0.01 μM, 24 h
Source text: RA membrane cells (representing a mixed population of all synovial cell types) were isolated from synovial membranes obtained from patients undergoing joint replacement surgery as previously described (Brennan (1989)). RA synovial fibroblasts were isolated from the mixed population of RA membrane cells as previously described (Brennan (1989)). The study was approved by the local Trust ethics committee (Riverside NHS Research Committee), and waste tissue (synovium after joint replacement surgery) was obtained only after receiving signed informed consent from the patient and anonymyzing the tissue to protect patient identity.
Immediately after isolation, RA membrane cells and macrophages were cultured at 1×10^5 cells/well in RPMI 1640 containing 10% (v/v) FBS and 100 U/ml (Units/ml) penicillin/streptomycin in 96-well tissue culture plates for 24 hours before stimulation. […]
as §2

wild type mice = experiment: Intra-articular injection of FBG in wild type mice, knee joint histology; type: in vivo
Procedure: Wild type mice were anesthetized by intraperitoneal injection of 150 μl of Hypnorm diluted 1:10 in sterile water and then injected with 100 ng, 1 or 3 μg FBG in 10 μl of sterile PBS into the right knee joint using a sterile 33-gauge microcannula. Control mice received an injection of 10 μl PBS alone or were not injected.
On days 3 and 7, mice were euthanized, the knee joints were excised and fixed in 10% (volume/volume) buffered formalin, decalcified, with 10% EDTA and processed to paraffin.
Coronal tissue sections (4 μm) were cut at 7 depths throughout the joint; 80 μm apart and stained with hematoxylin and eosin or Safranin-O to assess joint pathology.
Inflammation (the influx of inflammatory cells into synovium (infiltrate) and the joint cavity (exudates), was graded using an arbitrary scale from 0 (no inflammation) to 3 (severe inflammation). Chondrocyte death was determined as the percentage of cartilage area containing empty lacunae in relation to the total area. Cartilage surface erosion was determined as the amount of cartilage lost in relation to the total cartilage area. Bone destruction was determined in 10 different areas of the total knee joint section. Destruction was graded on a scale of 0 (no damage) to 3 (complete loss of bone structure). Histological analysis was performed by an investigator who was blinded to the experimental groups. The mean score for each animal in an experimental group was calculated by averaging the histopathologic scores in at least 5 section depths per joint.

TLR2 and TLR4 null mice = experiment: Intra-articular injection of FBG in TLR2 and TLR4 null mice; type: in vivo; settings: 1 μg FBG, 3 days
Procedure: Representative sections of the knee joint of TLR2 (a) and TLR4 (b) null mice 3 days after intra-articular injection of 1 μg FBG. Sections are stained with hemotoxylin and eosin. Magnification ×10 (n=5 mice per genotype). (c) Quantification of joint inflammation, bone erosion, cartilage surface erosion and chondrocyte death in the knee joints of TLR2 (white bars) and TLR4 (black bars) null mice 3 days after intra-articular injection of 1 μg FBG. Data represent the mean+/−SD (n=5 per genotype).
Homozygous TLR2 and TLR4 deficient mice on a C57BL/6 background (an inbred strain of mice with a black coat) were obtained from B&K Universal (Hull, UK) Hoshino (1999) and Takeuchi (1999). Homozygous MyD88 deficient mice on a C57BL/6 background were provided by the Sanger Institute (Cambridge, UK). Age matched congenic inbred wild type C57B/L6 mice were obtained from Charles River (Margate, UK). For isolation of mouse embryo fibroblasts one female aged 8-10 weeks was mated with two males aged 8-10 weeks. For isolation of bone marrow derived macrophages mice were female and between 10-12 weeks of age at the time of experimentation.
Coronal tissue sections (4 μm) were cut at 7 depths throughout the joint; 80 μm apart and stained with hematoxylin and eosin or Safranin-O to assess joint pathology. Histopathologic changes were scored using the following parameters as described in Van Lent (2006). […]

TLR2 = experiment: Cytokine synthesis in embryonic fibroblasts or macrophages from TLR2 deficient mice; type: cell-based
Procedure: MEFs express high levels of mRNA of all 9 murine TLRs and are specifically and highly responsive to TLR ligand activation. […] MEFs were isolated from d13 embryos harvested from age-matched, pregnant female wild type, TLR2, TLR4 and null mice (as described in Todaro (1963)). Fibroblasts were cultured at 2×10^4 cells/well in DMEM containing 10% (v/v) FBS and 100 U/ml penicillin/streptomycin in 96-well tissue culture plates for 24 hours before stimulation.
BMDMs were derived by aspirating the femurs of age matched female wild type, TLR2 and TLR4 null mice as described in Butler (1999)) and culturing the cells for 7 days in DMEM, 20% (v/v) FBS, 10 ml/L (v/v) antibiotic-antimycotic solution PSA, 50 μM β-Mercaptoethanol and 10 ng/ml M-CSF. Macrophages were then cultured at 1×10^5 cells/well in DMEM, 20% (v/v) FBS, 10 ml/L (v/v) antibiotic-antimycotic solution PSA, 50 μM β-Mercaptoethanol in 96-well tissue culture plates for 24 hours before stimulation.
as §1, §2

[3] = 1 μg FBG, 3 days after injection

With “FBG: recombinant fibrinogen-like globe, 227 amino acid globular domain at the C terminal of tenascin-C” the “heat and polymyxin B sensitivity of cytokine stimulation” value ([1]; boiled 15 min, 25 μg/ml polymyxin B pre-incubation) was “heat sensitive and unaffected by polymyxin B”, the “production of TNF-α, IL-6 and IL-8” value ([1]; human macrophages, 24 h, 1.0 μM-1.0 nM) was “to an equal extent to full-length tenascin-C” and the “synthesis of IL-6, IL-8 and TNF-α” value [2] was “further enhanced”. The “inflammation and proteoglycan loss” value (wild type mice; 100 ng FBG intra-articular) was “No inflammation or proteoglycan loss”, the knee joint histology (wild type mice; 1 μg FBG intra-articular, 3 days) was “inflammatory cell infiltration (FIG. 6f), mild synovitis, pannus formation (FIG. 6g) and proteoglycan loss” and the “histological quantification: cartilage surface erosion and bone damage” value (wild type mice; [3]) was “modest amount”. The “histological quantification: cellular infiltrate, exudate and chondrocyte death” value (wild type mice; [3]) was “high levels”, the knee joint histology (wild type mice; 3 μg FBG intra-articular) was “A similar response” and the joint inflammation (wild type mice; wild type mice, intra-articular, 100 ng, 1 or 3 μg) was “transient and dose dependent stimulation of joint inflammation”. The joint inflammation (TLR2 and TLR4 null mice; TLR2 null mice) was “able to induce joint inflammation”, the joint inflammation (TLR2 and TLR4 null mice; TLR4 null mice) was “not in TLR4 null mice” and the cytokine synthesis (TLR2) was “unaffected”.
